In PubChem BioAssay AID1919007 (Molecular Pharmacology Branch, DTP, NCI, 2023) one finds viability, T/C and IC50 data, which are given here for seven molecules.

The subject of the experiment is A498 complex spheroids with HUVEC/MSC, growth. Nature of the experiment: Anticancer human tumor A498 cell line growth inhibition [AhR].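 As to all read-outs here: seven day exposure starting three days after spheroid seeding.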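 As to viability, T/C: luminescence signal used as a surrogate for viable cells; luminescence viability scaled so 100% equals DMSO vehicle wells.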 Particulars: for viability, T/C: stronger effect = lower value. The text has this:
Multicellular complex tumor spheroid response to aryl hydrocarbon receptor antagonists in combination with a variety of drugs and investigational agents in selected tumor cell lines
The current study was undertaken to assess response to aryl hydrocarbon receptor antagonists in combination with standard-of-care drugs and investigational agents in solid tumor complex spheroid models. Complex spheroids include a stromal component modeled by human endothelial cells (HUVEC) and fibroblasts modeled by human mesenchymal stem cells (MSCs). The concentration ranges selected for each drug and investigational agent were based upon clinically achievable concentrations if the clinical Cmax of the agent was known.
Compounds. The drugs and investigational agents: BAY 2416964 (NSC825713), GNF351 (NSC835774), CH-223191 (NSC835775), CPI-455 (NSC825282), aza-TdCyd (NSC777586), decitabine (NSC127716), belinostat (NSC758774), entinostat (NSC756642), pevonedistat (NSC761192), tazemetostat (NSC777109), talazoparib (NSC765396), olaparib (NSC753686), selinexor (NSC780203), nedisertib (M3814, NSC802822), bortezomib (NSC756655), venetoclax (NSC766270), doxorubicin (NSC123127), elimusertib (BAY189344, NSC800525), ceralasertib (AZD6738, NSC777638), TAK-243 (NSC785004), alisertib (NSC759677), etoposide (NSC141540), topotecan (NSC609699), eribulin (NSC707389), gemcitabine (NSC613327), carboplatin (NSC241240), cisplatin (NSC119875), and SN-38 (NSC673596) were obtained from the National Cancer Institute (NCI) Developmental Therapeutics Program Chemical Repository (32). The FDA-approved anticancer drug set is available from the Developmental Therapeutics Program at https://dtp.cancer.gov/organization/dscb/obtaining/available plates.htm. […] The stock solutions were prepared in dimethyl sulfoxide (DMSO, Sigma-Aldrich, St. Louis, MO, cat. D2650), except for the platinum compounds which were prepared in saline (Quality Biological, Gaithersburg, MD, cat. 114-055-101), at 800-fold the tested concentration and stored at -70 degrees C prior to their use. All drugs and investigational agents were tested over a range starting from a high concentration at or near the clinical Cmax and decreasing in half-log increments. If the clinical Cmax for an agent had not been determined, the highest concentration tested was 10 microM (Table 1).
Cell Culture. All cells were maintained in an incubator at 37 degrees C and 5% CO2 with 95% humidity. The PDC lines were cultured according to standard operating procedures established by the NCI PDMR (https://pdmr.cancer.gov). Briefly, all PDCs were thawed and cultured in Matrigel-coated flasks prepared with a working solution of 1X Ham's F-12 nutrient mix, without supplementation (Invitrogen, Waltham, MA, cat. 11765054), 100 U/mL penicillin-streptomycin (Invitrogen, cat. 15140122), and 2.5% Matrigel (Corning Inc., Corning, NY, cat. 354248) for the first three passages. All PDCs were cultured in complete DMEM/F-12 media containing advanced DMEM/F-12 (Invitrogen, cat. 12634028), 4.9% defined fetal bovine serum, heat inactivated (HyClone Laboratories Inc., Logan, UT, cat. SH30070.03HI), 389 ng/mL hydrocortisone (Sigma-Aldrich, cat. H4001), 9.7 ng/mL human EGF recombinant protein (Invitrogen, cat. PHG0313), 23.4 microg/mL adenine (Sigma-Aldrich, cat. A2786), 97.3 U/mL penicillin-streptomycin (Invitrogen, cat. 15140122), 1.9 mM L-glutamine (Invitrogen, cat. 25030081), and 9.7 microM Y-27632 dihydrochloride (Tocris Bioscience, Bristol, United Kingdom, cat. 1254). The PDCs were cultured in complete DMEM/F12 media without 10 microM Y-27632 dihydrochloride for at least two passages prior to the screen. The established cell lines NCI-H1341 and […] were cultured in DMEM/F-12, HEPES (Invitrogen, cat. 11330032), 5% defined fetal bovine serum (HyClone Laboratories Inc., cat. SH30070.03), ITS premix universal culture supplement [insulin (5 microg/mL), transferrin (5 microg/mL), and selenious acid (5 ng/mL)] […]

Values joined by “and” are separate entries in the source; they are usually repeats but may differ in a detail not shown here. Identical values can stand only once.

Broadly, the viability, T/C is the ratio of treated to control. For orientation: IC50 means the concentration that gives 50% inhibition. For `CC(C)c1c(-c2ccccc2)nc2c(C#N)c[nH]n2c1=O`, the viability, T/C (compound 0.0316 µM) was 109% and 96.5% and 102%; the viability, T/C (compound 0.1 µM) was 113% and 109% and 96%; the viability, T/C (compound 0.316 µM) was 104% and 105% and 96.3%; the viability, T/C (compound 1 µM) is 99.8% and 104% and 97.1%; the viability, T/C (compound 3.16 µM) was 102% (2×) and 98.6%; the viability, T/C (compound 10 µM) was 106% and 112% and 96.8%. In addition, the IC50 (curve of compound) is above 10 µM.

For the molecule `CC(CO)NC(=O)c1cc(-c2ccc(Cl)cc2)nn(-c2cnn(C)c2)c1=O` (stereo not drawn), the viability, T/C is 92.3% [middle of 20 runs] (compound 0.1 µM); 90.5% [middle of 21 runs] (compound 0.316 µM); 85.9% [middle of 21 runs] (compound 1 µM); 83.2% [middle of 19 runs] (compound 3.16 µM); 68.4% [middle of 19 runs] (compound 10 µM). Moreover, the IC50 (compound alone, run of 08/08/2022) was above 10 µM.

`CC1COCCN1c1cc(C2(S(C)(=N)=O)CC2)nc(-c2ccnc3[nH]ccc23)n1` (stereo not drawn): the viability, T/C reads like this: (compound 0.0316 µM) 106% and 101% (2×); (compound 0.1 µM) 111% and 103% and 107%; (compound 0.316 µM) 104% and 99.8% and 95.7%; (compound 1 µM) 92.2% and 72.5% and 72.7%; (compound 3.16 µM) 61% and 46.5% and 37%; (compound 10 µM) 29% and 24.8% and 19.5%. For the same molecule, the IC50 (curve of compound) was 4.68 µM and 2.57 µM and 2.07 µM.

For `COc1ccc([C@@H](O)c2cc(-c3ncnc4cc(N5CCOCC5)ccc34)c(F)cc2Cl)nn1`, the viability, T/C is 96.5% and 95.1% and 98.9% (compound 0.0316 µM); 92% and 80.4% and 92.3% (compound 0.1 µM); 64.8% and 60.7% and 62% (compound 0.316 µM); 40.2% and 59.5% and 30.9% (compound 1 µM); 23.1% and 19.5% and 17.6% (compound 3.16 µM); 12.3% and 7.92% and 9.02% (compound 10 µM). Further, the IC50 (curve of compound) was 0.654 µM and 0.887 µM and 0.508 µM.

Take `Cc1ccccc1N=Nc1ccc(NC(=O)c2ccnn2C)c(C)c1`: the viability, T/C was 88.8% [middle of 20 runs] (compound 0.1 µM); 96.8% [middle of 20 runs] (compound 0.316 µM); 89.2% [middle of 20 runs] (compound 1 µM); 84.9% [middle of 20 runs] (compound 3.16 µM); 86.3% [middle of 20 runs] (compound 10 µM). For the same molecule, for the setting “compound alone, run of 08/22/2022”, the IC50 is above 10 µM.

Turning to `Cc1cncc(-c2nc(NCCc3c[nH]c4ccccc34)c3ncn(C(C)C)c3n2)c1`, the viability, T/C by setting is: (compound 0.1 µM) 90% [middle of 20 runs]; (compound 0.316 µM) 95.3% [middle of 20 runs]; (compound 1 µM) 87.7% [middle of 20 runs]; (compound 10 µM) 4.87% [middle of 19 runs]. In addition, the IC50 (compound alone, run of 08/16/2022) was 3.7 µM [middle of 24 runs].

On to `COc1cccc2c1C(=O)c1c(O)c3c(c(O)c1C2=O)CC(O)(C(=O)CO)CC3OC1CC(N)C(O)C(C)O1` (stereo not drawn) + CC(CO)NC(=O)c1cc(-c2ccc(Cl)cc2)nn(-c2cnn(C)c2)c1=O, for which the IC50 by setting is: (curve of first compound, second compound 0.1 µM) 0.129 µM; (curve of first compound, second compound 0.316 µM) 0.148 µM; (curve of first compound, second compound 1 µM) 0.231 µM; (curve of first compound, second compound 3.16 µM) 0.119 µM; (curve of first compound, second compound 10 µM) below 0.0316 µM. The viability, T/C is 55.1% (second compound 0.1 µM, first compound 0.0316 µM); 55.6% (second compound 0.1 µM, first compound 0.1 µM); 37.6% (second compound 0.1 µM, first compound 0.316 µM); 16.1% (second compound 0.1 µM, first compound 1 µM); 2.16% (second compound 0.1 µM, first compound 3.16 µM); 0.7% (second compound 0.1 µM, first compound 10 µM). The viability, T/C by setting is: (second compound 0.316 µM, first compound 0.0316 µM) 55%; (second compound 0.316 µM, first compound 0.1 µM) 53.3%; (second compound 0.316 µM, first compound 0.316 µM) 43.3%; (second compound 0.316 µM, first compound 1 µM) 16.4%; (second compound 0.316 µM, first compound 3.16 µM) 2.65%; (second compound 0.316 µM, first compound 10 µM) 0.83%. Besides, the viability, T/C by setting is: (second compound 1 µM, first compound 0.0316 µM) 56.1%; (second compound 1 µM, first compound 0.1 µM) 56.2%; (second compound 1 µM, first compound 0.316 µM) 47.7%; (second compound 1 µM, first compound 1 µM) 20.4%; (second compound 1 µM, first compound 3.16 µM) 4.74%; (second compound 1 µM, first compound 10 µM) 2.49%. The viability, T/C is, setting by setting: (second compound 3.16 µM, first compound 0.0316 µM) 52.6%; (second compound 3.16 µM, first compound 0.1 µM) 49.8%; (second compound 3.16 µM, first compound 0.316 µM) 44.1%; (second compound 3.16 µM, first compound 1 µM) 11.3%; (second compound 3.16 µM, first compound 3.16 µM) 3.01%; (second compound 3.16 µM, first compound 10 µM) 1.69%. The viability, T/C reads like this: (second compound 10 µM, first compound 0.0316 µM) 46.6%; (second compound 10 µM, first compound 0.1 µM) 38.5%; (second compound 10 µM, first compound 0.316 µM) 31.9%; (second compound 10 µM, first compound 1 µM) 1.3%; (second compound 10 µM, first compound 3.16 µM) 2.75%; (second compound 10 µM, first compound 10 µM) 0.83%.
